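Five concentrations, 48 hours, 96-well plates. GI50: concentration for 50% inhibition of growth.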 Calls of active or inactive are those of the source. Rule as the data show it: active = GI50 up to about 1.1 µM and inactive = higher.
Columns and labels:
Assay in all cases: DTP human tumour cell line panel, 48 h
786-0 = tested on: 786-0
A498 = tested on: A498
A549 = tested on: A549
ACHN = tested on: ACHN
CAKI-1 = tested on: CAKI-1
CCRF-CEM = tested on: CCRF-CEM
COLO 205 = tested on: COLO 205
DU-145 = tested on: DU-145
HCC 2998 = tested on: HCC 2998
HCT-116 = tested on: HCT-116
HCT-15 = tested on: HCT-15
HL-60 = tested on: HL-60
HOP-62 = tested on: HOP-62
HOP-92 = tested on: HOP-92
K562 = tested on: K562
KM12 = tested on: KM12
LOX IMVI = tested on: LOX IMVI
M14 = tested on: M14
MCF7 = tested on: MCF7
MDA-MB-231 = tested on: MDA-MB-231
MDA-MB-435 = tested on: MDA-MB-435
MDA-N = tested on: MDA-N
MOLT-4 = tested on: MOLT-4
NCI-H226 = tested on: NCI-H226
NCI-H23 = tested on: NCI-H23
NCI-H460 = tested on: NCI-H460
NCI/ADR-RES = tested on: NCI/ADR-RES
OVCAR-3 = tested on: OVCAR-3
OVCAR-4 = tested on: OVCAR-4
OVCAR-5 = tested on: OVCAR-5
OVCAR-8 = tested on: OVCAR-8
PC-3 = tested on: PC-3
RPMI-8226 = tested on: RPMI-8226
RXF 393 = tested on: RXF 393
SF-268 = tested on: SF-268
SF-295 = tested on: SF-295
SK-MEL-28 = tested on: SK-MEL-28
SK-MEL-2 = tested on: SK-MEL-2
SK-MEL-5 = tested on: SK-MEL-5
SK-OV-3 = tested on: SK-OV-3
SN12C = tested on: SN12C
SNB-19 = tested on: SNB-19
SNB-75 = tested on: SNB-75
SR = tested on: SR
SW-620 = tested on: SW-620
T47D = tested on: T47D
U-251 = tested on: U-251
UACC-257 = tested on: UACC-257
UACC-62 = tested on: UACC-62
UO-31 = tested on: UO-31
EKVX = tested on: EKVX
HT-29 = tested on: HT-29
Hs-578T = tested on: Hs-578T
IGROV-1 = tested on: IGROV-1
Malme-3M = tested on: Malme-3M
NCI-H522 = tested on: NCI-H522
SF-539 = tested on: SF-539
TK-10 = tested on: TK-10

Measured: GI50

O=C(/C=C/c1ccc2ccccc2c1)NCc1ccc(C(=O)NCCc2ccccc2)cc1
> 100 µM: HCT-15
inactive: 786-0 64.3 µM | A498 > 100 µM | A549 > 100 µM | ACHN > 100 µM | CAKI-1 > 100 µM | CCRF-CEM > 100 µM | COLO 205 > 100 µM | DU-145 > 100 µM | HCC 2998 > 100 µM | HCT-116 > 100 µM | HL-60 43.7 µM | HOP-62 > 100 µM | HOP-92 > 100 µM | K562 52 µM | KM12 > 100 µM | LOX IMVI > 100 µM | M14 > 100 µM | MCF7 > 100 µM | MDA-MB-231 > 100 µM | MDA-MB-435 > 100 µM | MDA-N > 100 µM | MOLT-4 > 100 µM | NCI-H226 43.5 µM | NCI-H23 > 100 µM | NCI-H460 > 100 µM | NCI/ADR-RES > 100 µM | OVCAR-3 > 100 µM | OVCAR-4 > 100 µM | OVCAR-5 > 100 µM | OVCAR-8 > 100 µM | PC-3 > 100 µM | RPMI-8226 > 100 µM | RXF 393 > 100 µM | SF-268 > 100 µM | SF-295 > 100 µM | SK-MEL-28 > 100 µM | SK-MEL-2 > 100 µM | SK-MEL-5 > 100 µM | SK-OV-3 > 100 µM | SN12C > 100 µM | SNB-19 > 100 µM | SNB-75 41.5 µM | SR > 100 µM | SW-620 > 100 µM | T47D 65.5 µM | U-251 > 100 µM | UACC-257 > 100 µM | UACC-62 > 100 µM | UO-31 > 100 µM

N=C(N)n1nc2c(c1O)CCCC2
inactive: 786-0 > 100 µM | A498 8.22 µM | A549 > 100 µM | ACHN > 100 µM | CAKI-1 > 100 µM | CCRF-CEM > 100 µM | COLO 205 > 100 µM | DU-145 > 100 µM | EKVX > 100 µM | HCC 2998 > 100 µM | HCT-116 > 100 µM | HL-60 > 100 µM | HOP-62 > 100 µM | HT-29 > 100 µM | Hs-578T > 100 µM | IGROV-1 65.2 µM | K562 > 100 µM | KM12 > 100 µM | LOX IMVI > 100 µM | M14 > 100 µM | MCF7 > 100 µM | MDA-MB-231 > 100 µM | MDA-MB-435 > 100 µM | MDA-N > 100 µM | MOLT-4 > 100 µM | Malme-3M > 100 µM | NCI-H226 > 100 µM | NCI-H23 > 100 µM | NCI-H460 > 100 µM | NCI-H522 > 100 µM | NCI/ADR-RES > 100 µM | OVCAR-3 > 100 µM | OVCAR-4 > 100 µM | OVCAR-5 > 100 µM | OVCAR-8 > 100 µM | PC-3 > 100 µM | RPMI-8226 > 100 µM | RXF 393 > 100 µM | SF-268 > 100 µM | SF-295 > 100 µM | SF-539 > 100 µM | SK-MEL-28 > 100 µM | SK-MEL-2 > 100 µM | SK-MEL-5 > 100 µM | SK-OV-3 > 100 µM | SN12C > 100 µM | SNB-19 > 100 µM | SNB-75 14.5 µM | SR > 100 µM | SW-620 > 100 µM | T47D > 100 µM | TK-10 > 100 µM | U-251 > 100 µM | UACC-257 > 100 µM | UACC-62 > 100 µM | UO-31 > 100 µM
> 100 µM: HCT-15
